What is called ΔTm is the shift of the melting midpoint relative to a reference.

The source of these data is ChEMBL document CHEMBL2396635, “Design, synthesis, and DNA binding characteristics of a group of orthogonally positioned diamino, N-formamido, pyrrole- and imidazole-containing polyamides” (Bioorg Med Chem, 2013).

Activity calls are given as the source filed them. The calls are words filed in the database; no cut-off is given here.

Assay [1] is described as follows: Binding affinity to 5'-TACGAT-3' of topoisomerase 2alpha promoter (unknown origin) in Tris buffer at pH 7 at 10 uM by DNA footprinting.
Assay [2] in a line: Binding affinity to 5'-ATCGAT-3' DNA (unknown origin) at 80 uM at 25 degC by ITC method. A general note: Isothermal titration calorimetry measures the heat released or taken up as one component is titrated into another.
The nature of assay [3]: Binding affinity to 5'-ATCGAT-3' of hairpin DNA (unknown origin) in 10 mM phosphate buffer at pH 6.2 at 1 mol equivalent of compound by CD titration method.
The nature of assay [4]: Binding affinity to 5'-ATCGAT-3' of hairpin DNA (unknown origin) in cacodylic acid buffer at pH 6.5 at 25 degC by SPR analysis. In general terms: Surface plasmon resonance follows binding to a sensor surface in real time, without labels.
Assay [5] is described as follows: Binding affinity to 5'-CTGCTTC-3' of topoisomerase 2alpha promoter (unknown origin) in Tris buffer at pH 7 at 30 uM by DNA footprinting.
Assay [6] is described as follows: Selectivity for 5'-TACGAT-3' of topoisomerase 2alpha promoter (unknown origin) over 5'-CTGCTTC-3' of topoisomerase 2alpha promoter (unknown origin).
The subject of assay [7] is Nucleic Acid. Description: Binding affinity to 5'-AAATTT-3' of hairpin DNA (unknown origin) in cacodylic acid buffer at pH 6.5 assessed as change in melting temperature at 3 uM by thermal denaturation assay. In kind it is nucleic-acid assay.
In assay [8] the test system is Nucleic Acid. Description: Binding affinity to 5'-ATCGAT-3' of hairpin DNA (unknown origin) in cacodylic acid buffer at pH 6.5 assessed as change in melting temperature at 3 uM by thermal denaturation assay. In kind it is nucleic-acid assay.
Assay [9] has as its system Nucleic Acid. Nature of the assay: Binding affinity to 5'-ACGCGT-3' of hairpin DNA (unknown origin) in cacodylic acid buffer at pH 6.5 assessed as change in melting temperature at 3 uM by thermal denaturation assay. In kind it is nucleic-acid assay.
Assay [10] is described as follows: Binding affinity to 5'-AAATTT-3' of 11 bp hairpin DNA oligonucleotide (unknown origin) in cacodylic acid buffer at pH 6.5 at 25 degC by SPR analysis.
Assay [11] can be described thus: Binding affinity to 5'-AAATTT-3' of DNA fragment (unknown origin) in Tris buffer at pH 7 at 20 uM by DNA footprinting.
A short description of assay [12]: Binding affinity to 5'-AAATTT-3' DNA (unknown origin) at 80 uM at 25 degC by ITC method.
Assay [13] can be described thus: Binding affinity to 5'-ACGCGT-3' of 11 bp hairpin DNA oligonucleotide (unknown origin) in cacodylic acid buffer at pH 6.5 at 25 degC by SPR analysis.
The test system of assay [14] is Nucleic Acid. Description: Binding affinity to 5'-ATGCAT-3' of hairpin DNA (unknown origin) in cacodylic acid buffer at pH 6.5 assessed as change in melting temperature at 3 uM by thermal denaturation assay. In kind it is nucleic-acid assay.
A short description of assay [15]: Binding affinity to 5'-ATGCAT-3' of 11 bp hairpin DNA oligonucleotide (unknown origin) in cacodylic acid buffer at pH 6.5 at 25 degC by SPR analysis.
Assay [16] in a line: Binding affinity to 5'-ATCGAT-3' of 11 bp hairpin DNA oligonucleotide (unknown origin) in cacodylic acid buffer at pH 6.5 at 25 degC by SPR analysis.
A short description of assay [17]: Binding affinity to 5'-ATGCAT-3' DNA (unknown origin) at 80 uM at 25 degC by ITC method.
Assay [18] can be described thus: Binding affinity to 5'-ACGCGT-3' DNA (unknown origin) at 80 uM at 25 degC by ITC method.
A short description of assay [19]: Binding affinity to 5'-ACGCGT-3' of hairpin DNA (unknown origin) in cacodylic acid buffer at pH 6.5 at 25 degC by SPR analysis.
Assay [20] in a line: Binding affinity to 5'-AAATTT-3' of hairpin DNA (unknown origin) in cacodylic acid buffer at pH 6.5 at 25 degC by SPR analysis.
A short description of assay [21]: Binding affinity to 5'-AAATTT-3' of hairpin DNA (unknown origin) in 10 mM phosphate buffer at pH 6.2 at 1 mol equivalent of compound by CD titration method.
Assay [22] can be described thus: Binding affinity to 5'-AAATTT-3' of DNA fragment (unknown origin) in Tris buffer at pH 7 at 30 uM by DNA footprinting.
Assay [23] can be described thus: Binding affinity to 5'-ATGCAT-3' of DNA fragment (unknown origin) in Tris buffer at pH 7 at 1 uM by DNA footprinting.
Assay [24] in a line: Binding affinity to 5'-ACTAGT-3' of DNA fragment (unknown origin) in Tris buffer at pH 7 at 1 uM by DNA footprinting.
The nature of assay [25]: Binding affinity to 5'-ATGCAT-3' of hairpin DNA (unknown origin) in cacodylic acid buffer at pH 6.5 at 25 degC by SPR analysis.
Assay [26] in a line: Binding affinity to 5'-ATGCAT-3' of hairpin DNA (unknown origin) in 10 mM phosphate buffer at pH 6.2 at 1 mol equivalent of compound by CD titration method.
Assay [27] in a line: Binding affinity to 5'-ACGCGT-3' of DNA fragment (unknown origin) in Tris buffer at pH 7 at 1 uM by DNA footprinting.
Assay [28] in a line: Binding affinity to 5'-ACGCGT-3' of DNA fragment (unknown origin) in Tris buffer at pH 7 at 0.05 uM by DNA footprinting.
The nature of assay [29]: Binding affinity to 5'-ACGCGT-3' of hairpin DNA (unknown origin) in 10 mM phosphate buffer at pH 6.2 at 1 mol equivalent of compound by CD titration method.

In the case of `CN(C)CCCNC(=O)c1cc(NC(=O)c2nc(NC(=O)c3cc(NC=O)cn3CCCN)cn2C)cn1C`, the result in assay [1], in assay [2], in assay [3] and in assay [5] was Active. This compound came in with a Ke in assay [4] of under 1 ×10⁵ /M. The Selectivity ratio in assay [6] was determined as 3. The ΔTm in the assay with Nucleic Acid [7] was 10 °C; in the assay with Nucleic Acid [8], 0 °C; with Nucleic Acid [9] it was 0 °C.

`CN(C)CCCNC(=O)c1cc(NC(=O)c2cc(NC(=O)c3cc(NC=O)cn3C)cn2C)cn1C`: in assay [10], the Ke is 3.2 ×10⁶ /M. In addition, the result in assay [11] and in [12] was Active. For the same compound, the values for the ΔTm with Nucleic Acid [7] and in the assay on Nucleic Acid [8] were 9 °C and 1 °C, respectively.

On to `CN(C)CCCNC(=O)c1cc(NC(=O)c2nc(NC(=O)c3cc(NC=O)cn3C)cn2C)cn1C`, for which the result in assay [1], in [2] and in assay [5] was Active. In [4], this compound yielded a Ke of 2 ×10⁵ /M. For the same compound, the Selectivity ratio in assay [6] amounted to 3. Further, the thermal shift (ΔTm) is 0 °C in the assay with Nucleic Acid [8] and 3 °C in the assay with Nucleic Acid [9].

With `CN(C)CCCNC(=O)c1cc(NC(=O)c2cc(NC(=O)c3nc(NC=O)cn3C)cn2C)cn1C`, the results for the Ke in assay [13], in [15] and in assay [16] were 8.8 ×10⁴ /M, 1.2 ×10⁷ /M and 9.4 ×10⁴ /M, respectively. Also, the ΔTm in the assay on Nucleic Acid [14] was determined as 11 °C; in the assay on Nucleic Acid [8] it was 3 °C; in the assay on Nucleic Acid [9], 2 °C. The result in [17] was Active.

As to `CN(C)CCNC(=O)c1nc(NC(=O)c2cc(NC(=O)c3nc(NC=O)cn3C)cn2C)cn1C`, the thermal shift (ΔTm) worked out at 9 °C in the assay with Nucleic Acid [14], 1 °C in the assay with Nucleic Acid [7], 1 °C in the assay with Nucleic Acid [8] and 9 °C in the assay with Nucleic Acid [9]. Moreover, the Ke was determined as 1.2 ×10⁷ /M in [15], 5.4 ×10⁷ /M in assay [19], 1 ×10⁵ /M in assay [16] and 5.3 ×10⁴ /M in assay [20]. The outcome in [18] was Active.

`CN(C)CCCNC(=O)c1cc(NC(=O)c2cc(NC(=O)c3cc(NC=O)cn3C)cn2CCCN)cn1C`: the outcome in assay [11], in assay [12], in assay [21] and in assay [22] was Active. Further, the figures for the ΔTm in the assay with Nucleic Acid [7], in the assay on Nucleic Acid [8] and in the assay on Nucleic Acid [9] were 25 °C, 10 °C and 0 °C, respectively. The Ke in assay [20] was determined as 4.8 ×10⁷ /M.

Turning to `CN(C)CCCNC(=O)c1cc(NC(=O)c2cc(NC(=O)c3nc(NC=O)cn3C)cn2CCCN)cn1C`, the outcome in assay [23], in [24], in [26], in assay [17] and in assay [27] was Active. In addition, the ΔTm in the assay on Nucleic Acid [14] was determined as 26 °C; in the assay with Nucleic Acid [7] it was 0 °C; in the assay on Nucleic Acid [8], 7 °C; in the assay with Nucleic Acid [9], 0 °C. In addition, the figures for the Ke in [4], in assay [19] and in assay [25] were 2.7 ×10⁶ /M, 2.3 ×10⁶ /M and 1.3 ×10⁸ /M, respectively.

With `CN(C)CCNC(=O)c1nc(NC(=O)c2cc(NC(=O)c3nc(NC=O)cn3C)cn2CCCN)cn1C`, the ΔTm in the assay on Nucleic Acid [14] was 24 °C; in the assay on Nucleic Acid [7], 10 °C; with Nucleic Acid [8] it was 11 °C; in the assay with Nucleic Acid [9], over 24 °C. The outcome in [28], in assay [18] and in [29] was Active. Moreover, the Ke was 1.7 ×10⁶ /M in assay [4], 2.4 ×10⁸ /M in [19] and 3.5 ×10⁷ /M in [25].
